The text below walks through data of PMC6934657, “Transdermal delivery of nobiletin using ionic liquids” (Scientific Reports, 2019).

In brackets after ≈: the same amount, converted by molar mass.

Details of series [1]: method as in PMID 27076076. Conditions: oral, 200 mg/kg; cited from earlier work.
The conditions of series [2]: cited from earlier work.
The test system of series [3] is blood glucose level. The experiment in a line: Hypoglycemic activity after transdermal administration to SD rats. Conditions: transdermal with CAGE, 10 mg/kg. Format: in vivo. Here is the method: The hypoglycemic activity of the NOB/CAGE sample was evaluated following the same protocol used for the transdermal tests in vivo using SD rats as described in Section 2.4. A 5 mg/mL solution of PBS, NOB/PBS, or NOB/CAGE was transdermally administered to the donor area of the rats (10 mg/kg) and blood was collected from the tail vein after 1, 2, 4, 8, 12, and 24 h. Blood glucose was measured using a commercial glucose meter (ACCU-CHEK® ST Meter, ACCU-CHEK® ST Strip, Roche Diagnostics K.K., Tokyo, Japan) (n = 5).

For series [4] the following is noted: cited from earlier work. This is another data set of the same source.
Series [5] in a line: Measurement of NOB solubility in CAGE. Conditions: shaken at 37 °C for 48 h, HPLC. Format: physicochemical. Here is the method:
An excess amount of NOB was added to CAGE in test tubes and the tubes were shaken at 37 °C for 48 h. The supernatants were then collected and filtered through a filter with a pore size of 0.20 µm (Toyo Roshi Co. Ltd., Tokyo, Japan), and the concentration of NOB was determined by high-pressure liquid chromatography (HPLC) (Shimadzu LC-2010C, Kyoto, Japan) with the following conditions: mobile phase 0.1% formic acid in water (solvent A) and acetonitrile (solvent B) (0–20 min, 52.5–75% solvent A); flow rate 1 mL/min; injection volume 5 µL; column Develosil ODS-HG-5, 4.6 mm × 150 mm, 5 µm particle size; column temperature 40 °C; UV detector wavelength 285 nm.

A short description of series [6]: In vitro skin penetration test using Franz diffusion cell. Conditions: 24 h. Format: in vitro ADME, Yucatan micropig. How it is done: Porcine skin stored at −70 °C was thawed at 37 °C for 30 min, and then cut into a circle 3.5 cm in diameter. The adipose tissue of this skin was scraped off with a razor. The skin was sandwiched between the acceptor side of a Franz diffusion cell (FDC) (PermeGear, Hellertown, PA, USA) filled with phosphate buffered saline (PBS) solution, and the donor of the FDC, and both sides of the FDC were fixed with a clip. The skin was stretched without wrinkles and the acceptor was degassed. Then, 300 μL of 1, 2, 5, 7, and 10 mg/mL NOB/PBS or NOB/CAGE were added to the donor and incubated for 24 h at 37 °C. After incubation, samples in the donor were removed and the skin was washed up to 5 times with PBS solution. The skin was removed from the FDC and punched out according to the administration area. A tape stripping method was used with ten tapes to obtain parts of the stratum corneum (SC). The remaining epidermis was scraped with a razor and separated from the dermis. NOB was eluted from these tissue samples using methanol: PBS = 1:1 for 24 h. The solutions were centrifuged at 3,000 rpm at 25 °C for 3 min and the supernatant was passed through a membrane filter (pore size: 0.20 µm, Toyo Roshi Co. Ltd.). The amount of NOB in the SC, epidermis, dermis, and acceptor was quantitatively determined by HPLC as described in Section 2.1.2. […] To compare the permeation ability of CAGE with other skin permeation reagents, additional 24-h transdermal tests were performed using 1 mg/mL NOB/diethylene glycol monoethyl ether (DGME): PBS = 1:1 (v:v) and NOB/ethanol (EtOH): […]

On the set-up of series [7]: method as in doi:10.2525/ecb.56.161, PMID 18951932. Conditions: cited from earlier work.
Series [8] deals with blood glucose level. Also on record: method as in PMID 28337858. Conditions: transdermal insulin delivery using CAGE; cited from earlier work.
On the set-up of series [9]: method as in PMID 30682442. Conditions: cited from earlier work.

The solubility is the dissolved amount per volume that the medium holds. `COc1ccc(-c2cc(=O)c3c(OC)c(OC)c(OC)c(OC)c3o2)cc1OC` [NOB, Nobiletin]: in [1], the “Blood glucose level accompanied with insulin injection” value was “caused a drop in the BGL”. Also, the Weight gain result in series [1] was “significantly suppressed weight gain”. The “Oral bioavailability in rat” value in [2] (oral administration of NOB crystals to rats, ref 14 (Fig. 1: Onoue et al.[11])) was 0.85%. In addition, the “Decrease in the blood glucose level over 12 h” value in the series on blood glucose level [3] is reported as “at most 34%”. Also, the “Solubility of NOB in water” value in series [4] (in water, ref Onoue et al.[11]) is 16 µg/mL. Besides, the Water solubility in series [4] (ref 14 (Fig. 1: Onoue et al.[11])) is 16.2 µg/mL. Further, in series [5], the solubility at 48 h was 7200 µg/mL (≈ 17.9 mM). Moreover, the “Ratio of NOB in deeper fractions (epidermis + dermis + acceptor) to total NOB transferred to the skin” value in series [6] (1 mg/mL NOB in 50:50 (v:v) DGME: PBS) was 41%; in [6] (1 mg/mL NOB in 50:50 (v:v) EtOH: PBS), 54%; in [6] (1 mg/mL NOB in CAGE) it was 77%; in [6] (1 mg/mL NOB in PBS), 28%. Also, the “Order of amount of NOB detected in the acceptor by solvent” value in series [6] (1 mg/mL NOB) was “CAGE > EtOH: PBS > PBS > DGME”.
With `COc1ccc(-c2cc(=O)c3c(OC)c(OC)c(OC)c(OC)c3o2)cc1OC` [crystalline NOB, Nobiletin], the “Oral BA of crystalline NOB” value in series [2] (oral, 2 mg/kg) is recorded as 0.46%.
For the compound `O=c1c(O)c(-c2ccc(O)c(O)c2)oc2cc(O)cc(O)c12` [quercetin, reference compound], the Solubility in water in series [4] was 1.4 µg/mL (≈ 0.00463 mM). Also, the BA in men in series [7] is 1%.
For the compound insulin, the “Drop in the blood glucose level over 12 h” value in the series with blood glucose level [8] is reported as about 40%.
For `O=c1c(O)c(-c2ccc(O)cc2)oc2cc(O)cc(O)c12` [kaempferol, reference compound], the BA in series [9] is given as 2%. Besides, in series [4], the Solubility in water was 180 µg/mL (≈ 0.629 mM).
